{"source": "patent EP2787001A1", "about": "“(E)-3-Aryl-3-oxoprop-1-enyl-2-phosphonic acid and its derivatives, methods for their preparation and their use” (Centrum Badan Molekularnych I Makromolekularnych Polskiej …, priority 2013, dated 2014)", "key": {"[1]": {"test_system": "DNA plasmid pcDNA 3.1 HisC (8.2 kb)", "test": "Digestion of plasmid DNA with restriction enzyme Bam H1 after incubation with compounds (agarose gel electrophoresis)", "assay_type": "biochemical", "settings": "compound 2 or 20 µM, overnight incubation at 37°C, then BamH1 2U/sample for 3 hours at 37°C; gel not shown", "description": "The impact of compounds 1a and 1b has been tested on the digestion of DNA plasmid pcDNA 3.1 HisC (8.2 kb) with restriction enzyme Bam H1.\n1. For this purpose, pcDNA 3.1 HisC plasmid DNA (0.6 µg) was dissolved in 1×BamH1 buffer and incubated overnight at 37°C with the following reference or test compounds:\nThe concentration of the reference and test compounds in each sample was 2 or 20 µM.\n2. After overnight incubation, the reaction mixture was digested with BamH1 restriction enzyme (2U/sample) for 3 hours at 37°C. The total volume of the samples was 10 µL.\n3. The reaction products were applied on 1% agarose gel and electrophoresis was performed in TAE buffer."}, "[2]": {"test_system": "synthetic DNA duplex (23 nt- 5'TCTTCAAGAATTCAGGTCCTGAT 3')", "test": "Circular dichroism (CD) spectra of DNA with test compounds", "assay_type": "binding", "settings": "DNA duplex 2µM, compound 20µM, 0.2% DMSO, PBS, 23°C, immediately after addition", "description": "The ability of the test compounds 1a and 1b to interact with DNA was tested by the circular dichroism (CD) technique.\n1. For this purpose, samples were prepared in PBS buffer containing: 2µM of synthetic DNA duplex (23 nt- 5'TCTTCAAGAATTCAGGTCCTGAT 3') or DNA of bovine thymus (0.2 mg/ml) and test compounds at a concentration of 20µM or 40µM for synthetic DNA duplex sample and thymus DNA sample, respectively. The samples contained 0.2% or 0.4% DMSO (for synthetic DNA duplex sample and thymus DNA sample, respectively), which is a solvent of the test compounds.\n2. CD spectra (in the range from 200 nm to 320 nm) were recorded immediately after addition of the test compounds as well as after 1.5 h incubation. The measurement was carried out at 23°C in a quartz cuvette (optical path length 0.5 cm) using a spectroscope CD6 (Jobin-Yvon, France).\n3. CD spectra of DNA incubated with the test compounds were compared with the control spectrum (spectrum was recorded for a sample of DNA (2µM or 0.2 mg/ml) in the presence of DMSO (final concentration of 0.2% or 0.4%)."}}, "data": [{"smiles": "O=C(/C(=C/c1ccc2ccc3cccc4ccc1c2c34)P(=O)(O)O)c1ccc2c(c1)OCO2", "note": "[Compound 1b, (Z)-3-(benzo[d][1,3]dioxol-5-yl)-1-(pyrene-1-yl)-3-oxoprop-1-en-2-ylphosphonic acid]", "values": [{"measurement": "interaction with plasmid DNA: resistance to digestion by the endonucleolytic enzyme Bam H1", "setting": "[1]", "value": "increasing its resistance to digestion"}, {"measurement": "change of CD spectrum of duplex DNA compared to the control (duplex DNA + DMSO)", "setting": "[2]", "value": "changes compared to the control sample"}]}, {"smiles": "COP(=O)(OC)/C(=C/c1ccc2ccc3cccc4ccc1c2c34)C(=O)c1ccc2c(c1)OCO2", "note": "[Compound 1a]", "values": [{"measurement": "interaction with plasmid DNA: resistance to digestion by the endonucleolytic enzyme Bam H1", "setting": "[1]", "value": "increasing its resistance to digestion"}, {"measurement": "change of CD spectrum of duplex DNA compared to the control (duplex DNA + DMSO)", "setting": "[2]", "value": "changes compared to the control sample"}]}, {"smiles": "COc1cccc2c1C(=O)c1c(O)c3c(c(O)c1C2=O)C[C@@](O)(C(C)=O)C[C@@H]3O[C@H]1C[C@H](N)[C@H](O)[C@H](C)O1", "note": "[Daunorubicin, reference compound]", "values": [{"measurement": "interaction with plasmid DNA: resistance to digestion by the endonucleolytic enzyme Bam H1", "setting": "[1]", "value": "increasing its resistance to digestion"}, {"measurement": "change of CD spectrum of duplex DNA compared to the control (duplex DNA + DMSO)", "setting": "[2]", "value": "changing significantly its structure"}]}]}
